# Source: the NIST ThermoML archive (doi:10.1016/j.jct.2010.04.011)
# ± gives the expanded uncertainty stated by the source.
# Experiment: activity coefficient (dimensionless); of the first substance listed, at infinite dilution; xn = mol fraction of the nth substance listed
# Conditions: 298 K; 101 kPa; Liquid; Chromatography; x1 = 0
row,Compound,activity coefficient
1,C#CCCCC [1-hexyne] + C[S+](C)[O-],4.1 ± 0.8
2,ClC(Cl)=C(Cl)Cl [tetrachloroethene] + C[S+](C)[O-],10.5 ± 2.1
3,"C=CCCC=C [1,5-hexadiene] + CCCCCCCCCCCCCCCC",0.8 ± 0.16
4,ClC(Cl)(Cl)Br [bromotrichloromethane] + C[S+](C)[O-],2.1 ± 0.4
5,C#CCCCCCC [1-octyne] + C[S+](C)[O-],10.2 ± 2.1
6,C=CC1CC=CCC1 (configuration not stated) [4-ethenylcyclohexene] + C[S+](C)[O-],20.7 ± 4.2

# Second part, the compound after the results:
row,activity coefficient,Compound
1,49.2 ± 10,CC1CCCCC1 [methylcyclohexane] + C[S+](C)[O-]
2,15.1 ± 3.1,Cc1ccc(C(C)C)cc1 [1-(1-methylethyl)-4-methylbenzene] + C[S+](C)[O-]
3,5.7 ± 1.2,"C1=CC=CCC=C1 [1,3,5-cycloheptatriene] + C[S+](C)[O-]"
4,63.3 ± 13,C1CCCCCCC1 [cyclooctane] + C[S+](C)[O-]
5,29.5 ± 6,CC1CCCC1 [methylcyclopentane] + C[S+](C)[O-]
6,7 ± 1.4,C1=CCCC1 [cyclopentene] + C[S+](C)[O-]
7,11.6 ± 2.4,"C=CCCC=C [1,5-hexadiene] + C[S+](C)[O-]"
8,6.9 ± 1.4,C#CCCCCC [1-heptyne] + C[S+](C)[O-]
9,14.9 ± 3,C1=CCCCC1 [cyclohexene] + C[S+](C)[O-]

# Same assay, conditions: 298 K; Gas; Chromatography; x1 = 0
row,Compound,activity coefficient
1,C=CC1CC=CCC1 (configuration not stated) [4-ethenylcyclohexene] + CCCCCCCCCCCCCCCC,0.96 ± 0.19
2,C1CCCCCCC1 [cyclooctane] + CCCCCCCCCCCCCCCC,0.96 ± 0.19
